Where “and” joins values, the source holds several entries; their conditions need not be identical. Identical values can stand only once. Like-named read-outs stand apart in the source and are kept apart here. Bridge positions count the residues as written; N and C are the ends. Square brackets hold non-standard residues; d marks the D form. Peptide text beside a SMILES is read from it. * marks the point of attachment. 5FAM = O=C1OC2(c3ccc(O)cc3Oc3cc(O)ccc32)c2ccc(C(=O)*)cc21; S5 = C=CCCC[C@](C)(N)C(=O)O; Nle = CCCC[C@H](N)C(=O)O; Aib = CC(C)(N)C(=O)O; βAla = NCCC(=O)O
Experiments:
H1N1 California/07/2009 [1] = assay: microbe, parasite or virus in culture; format: cell-based, influenza A virus; conditions: read-out: EC50 (μM) H1N1 California/07/2009
H3N2 Perth/16/2009 [2] = assay: microbe, parasite or virus in culture; format: cell-based, influenza A virus; conditions: read-out: EC50 (μM) H3N2 Perth/16/2009
H1N1 California/07/2009 [3] = assay: microbe, parasite or virus in culture; format: cell-based, influenza A virus
H3N2 Perth/16/2009 [4] = assay: microbe, parasite or virus in culture; format: cell-based, influenza A virus; conditions: read-out: EC50 (μM) H3N2 Perth/16/2009; remark: listed apart in the source
in vitro = conditions: dog
[5] = read-out: EC50 (μM) H1N1 California/07/2009
[6] = CC50 (μM) H1N1 California/07/2009, Cell cytotoxicity (CC), run with H1N1 California/07/2009
[7] = CC50 (μM) H3N2 Perth/16/2009, Cell cytotoxicity (CC), run with H3N2 Perth/16/2009
[8] = CC50, MDCK cells, run with Influenza A H1N1 California/07/2009, Neutral Red
[9] = CC50, MDCK cells, run with Influenza A H1N1 California/07/2009, Visual

Row | Compound | EC50 (H1N1 California/07/2009 [1]) [µM] | EC50 (H3N2 Perth/16/2009 [2]) [µM] | EC50 (H1N1 California/07/2009 [3]; [5]) [µM] | EC50 (H3N2 Perth/16/2009 [4]) [µM] | CC50 (in vitro; [6]) [µM] | CC50 (in vitro; [7]) [µM] | CC50 (in vitro; [8]) [µM] | CC50 (in vitro; [9]) [µM] | EC50 (H1N1 California/07/2009 [3]; read-out: EC50)
1 | CCCC[C@H](NC(C)=O)C(=O)N[C@@H](CC(=O)O)C(=O)N[C@H](C(=O)N[C@@H](CC(N)=O)C(=O)N[C@@]1(C)CCCC=CCCC[C@@](C)(C(=O)N[C@@H](CC(C)C)C(=O)N[C@@H](CCCCN)C(=O)N[C@@H](C)C(=O)NC(C)(C)C(=O)N[C@@H](C)C(=O)N[C@@H](CCC(N)=O)C(N)=O)NC(=O)[C@H](CC(C)C)NC(=O)[C@H](CC(C)C)NC(=O)[C@H]([C@@H](C)O)NC1=O)C(C)C [SP-1] (Ac-[Nle]DVN[S5]TLL[S5]LKA[Aib]AQ-NH2; staple 5-9) | > 50 | 25 to 50 | 25 to 50 | 25 to 50 | > 100 | > 100 | > 100 | > 100 | –
2 | CCCC[C@H](NC(C)=O)C(=O)N[C@@H](CC(=O)O)C(=O)N[C@H](C(=O)N[C@@H](CC(N)=O)C(=O)N[C@@]1(C)CCCC=CCCC[C@@](C)(C(=O)N[C@@H](CC(C)C)C(=O)N[C@@H](CCCCN)C(=O)N[C@H](C(=O)NC(C)(C)C(=O)N[C@@H](C)C(=O)N[C@@H](C)C(N)=O)C(C)C)NC(=O)[C@H](CC(C)C)NC(=O)[C@H](CC(C)C)NC(=O)[C@H]([C@@H](C)O)NC1=O)C(C)C [SP-2] (Ac-[Nle]DVN[S5]TLL[S5]LKV[Aib]AA-NH2; staple 5-9) | > 50 | 10 to 25 | > 50 | 25 to 50 | > 100 | > 100 | > 100 | > 100 | 51 µM and 32 µM
3 | CCCC[C@H](NC(C)=O)C(=O)N[C@@H](CC(=O)O)C(=O)N[C@H](C(=O)N[C@@H](CC(N)=O)C(=O)N[C@@]1(C)CCCC=CCCC[C@@](C)(C(=O)N[C@@H](CC(C)C)C(=O)N[C@@H](CCCCN)C(=O)N[C@H](C(=O)N2CCC[C@H]2C(=O)NC(C)(C)C(=O)N[C@@H](CCC(N)=O)C(N)=O)C(C)C)NC(=O)[C@H](CC(C)C)NC(=O)[C@H](CC(C)C)NC(=O)[C@H]([C@@H](C)O)NC1=O)C(C)C [SP-3] (Ac-[Nle]DVN[S5]TLL[S5]LKVP[Aib]Q-NH2; staple 5-9) | > 50 | 25 to 50 | > 50 | > 50 | > 100 | > 100 | > 100 | > 100 | > 100 µM and 73 µM
4 | CC(=O)N[C@@H](Cc1ccccc1)C(=O)N[C@@H](CC(=O)O)C(=O)N[C@H](C(=O)N[C@@H](CC(N)=O)C(=O)N[C@@]1(C)CCCC=CCCC[C@@](C)(C(=O)N[C@@H](CC(C)C)C(=O)N[C@@H](CCCCN)C(=O)N[C@H](C(=O)NC(C)(C)C(=O)N[C@@H](C)C(=O)N[C@@H](CCC(N)=O)C(N)=O)C(C)C)NC(=O)[C@H](CC(C)C)NC(=O)[C@H](CC(C)C)NC(=O)[C@H]([C@@H](C)O)NC1=O)C(C)C [SP-4] (Ac-FDVN[S5]TLL[S5]LKV[Aib]AQ-NH2; staple 5-9) | > 50 | 25 to 50 | > 50 | 25 to 50 | > 100 | > 100 | > 100 | > 100 | –
5 | CCCC[C@H](NC(=O)CCNC(=O)c1ccc2c(c1)C(=O)OC21c2ccc(O)cc2Oc2cc(O)ccc21)C(=O)N[C@@H](CC(=O)O)C(=O)N[C@H](C(=O)N[C@@H](CC(N)=O)C(=O)N[C@@]1(C)CCCC=CCCC[C@@](C)(C(=O)N[C@@H](CC(C)C)C(=O)N[C@@H](C)C(=O)N[C@H](C(=O)NC(C)(C)C(=O)N[C@@H](C)C(=O)N[C@@H](CCC(N)=O)C(N)=O)C(C)C)NC(=O)[C@H](CC(C)C)NC(=O)[C@H](CC(C)C)NC(=O)[C@H]([C@@H](C)O)NC1=O)C(C)C [SP-5] ({5FAM-βAla}-[Nle]DVN[S5]TLL[S5]LAV[Aib]AQ-NH2; staple 5-9) | – | – | – | – | > 100 | > 100 | > 100 | > 100 | –
